Biological target: T1, human recombinant USP30 (Homo sapiens, UniProt Q70CQ3)
T1 construct: purchased Boston Biochem E-582
T1 sequence (Q70CQ3 1-517): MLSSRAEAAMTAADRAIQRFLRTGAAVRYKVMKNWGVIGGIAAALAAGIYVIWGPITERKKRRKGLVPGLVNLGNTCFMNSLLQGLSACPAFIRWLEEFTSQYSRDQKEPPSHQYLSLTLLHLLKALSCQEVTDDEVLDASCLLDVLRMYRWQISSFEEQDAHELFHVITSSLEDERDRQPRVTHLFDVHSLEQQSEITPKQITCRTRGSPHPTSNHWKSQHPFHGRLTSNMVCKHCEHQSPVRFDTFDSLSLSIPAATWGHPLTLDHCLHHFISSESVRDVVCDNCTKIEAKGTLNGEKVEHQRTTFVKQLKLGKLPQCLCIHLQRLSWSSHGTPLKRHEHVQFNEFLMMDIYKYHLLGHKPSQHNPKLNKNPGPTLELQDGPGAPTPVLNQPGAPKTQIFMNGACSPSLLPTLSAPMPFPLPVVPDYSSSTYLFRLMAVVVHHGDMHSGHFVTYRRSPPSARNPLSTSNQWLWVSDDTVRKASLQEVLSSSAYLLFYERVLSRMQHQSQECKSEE
Assay: Ubiquitin-Rhodamine 110 Assay for USP30 Activity (USP30 Inhibitor Biochemical Assay)
Conditions: 0.2 nM USP30, 25 nM Ub-Rh110, 30 min preincubation, 30 min at room temperature; read-out: USP30 potency range (USP30 biochemical IC50 assay, IC50 ranges)
Description: Example A: Biochemical Assay: Ubiquitin-Rhodamine 110 Assay for USP30 Activity (USP30 Inhibitor Biochemical Assay)
The assay was performed in a final volume of 9 μL in assay buffer containing 20 mM Tris-HCl (pH 8.0, (1M Tris-HCl, pH 8.0 solution; Corning 46-031-CM)), 1 mM GSH (L-glutathione reduced, Sigma-Aldrich, G4251-100G), 0.03% BGG (0.22 μM filtered, Sigma, G7516-25G), and 0.01% Triton X-100 (Sigma, T9284-10L). Nanoliter quantities of 10-point, 3-fold serial dilution in DMSO were pre-dispensed into 1536 assay plates (Corning, #3724BC) for a final test concentration of 25 μM to 1.3 nM, top to lowest dose, respectively. Concentration and incubation times were optimized for the maximal signal-to-background while maintaining initial velocity conditions at a fixed substrate concentration. The final concentration of USP30 (human recombinant USP30, Boston Biochem, cat. # E-582) in the assay was 0.2 nM. […] 3 μL of 2×USP30 was added to assay plates (pre-stamped with compound), preincubated for 30 minutes and then treated with 3 μL of 2×Ub-Rh110. Plates were incubated for 30 minutes at room temperature before addition of 3 μL of stop solution (final concentration of 10 mM citric acid (Sigma, 251275-500G)). Fluorescence was read on the Envision (excitation at 485 nm and emission at 535 nm; Perkin Elmer) or on the PheraSTAR (excitation at 485 nm and emission at 535 nm; BMG Labtech).
For all assay formats data were reported as percent inhibition compared with control wells based on the following equation: % inh=1−((FLU−AveLow)/(AveHigh−AveLow)) where FLU=measured Fluorescence, AveLow=average Fluorescence of no enzyme control (n=16), and AveHigh=average Fluorescence of DMSO control (n=16). IC50 values were determined by curve fitting of the standard 4 parameter logistic fitting algorithm included in the Activity Base software package: IDBS XE Designer Model205. Data is fitted using the Levenburg Marquardt algorithm.

Row | Compound | IC50
1 | N#CN[C@H]1C[C@H](C(=O)Nc2ncc([C@H]3CC4CCC3CC4)s2)C1 [Compound 1-38, (1r,3r)-N-{5-[(2S)-bicyclo[2.2.2]octan-2-yl]-1,3-thiazol-2-yl}-3-(cyanoamino)cyclo-butane-1-carboxamide] | 100 to 1000 nM
2 | N#CN[C@H]1C[C@H](C(=O)Nc2cc(Cl)n(C3CCCCC3)n2)C1 [Compound 1-39, (1r,3r)-N-(5-chloro-1-cyclohexyl-1H-pyrazo1-3-yl)-3-(cyanoamino)cyclo-butane-1-carboxamide] | 100 to 1000 nM
3 | N#CN[C@H]1C[C@H](C(=O)Nc2ncc(-c3cccc(C#N)c3)s2)C1 [Compound 1-40, (1r,3r)-3-(cyanoamino)-N-[5-(3-cyanophenyl)-1,3-thiazol-2-yl]cyclobutane-1-carboxamide] | 100 to 1000 nM
4 | N#CN[C@H]1C[C@H](C(=O)Nc2cc(-c3cccc(Cl)c3)no2)C1 [Compound 1-41, (1r,3r)-N-[3-(3-chlorophenyl)-1,2-oxazol-5-yl]-3-(cyanoamino)cyclo-butane-1-carboxamide] | 100 to 1000 nM
5 | N#CN[C@H]1C[C@H](C(=O)Nc2cc(-c3cccc(Cl)c3)on2)C1 [Compound 1-43, (1r,3r)-N-[5-(3-chlorophenyl)-1,2-oxazol-3-yl]-3-(cyanoamino)cyclo-butane-1-carboxamide] | 100 to 1000 nM
6 | C[C@]1(C(=O)Nc2nc(Cl)c(C3CCCCC3)s2)C[C@H](NC#N)C1 [Compound 1-44, (1r,3s)-N-(4-chloro-5-cyclohexyl-1,3-thiazol-2-yl)-3-(cyanoamino)-1-methylcyclobutane-1-carboxamide] | < 100 nM
7 | CN(c1cc(-c2cccc(Cl)c2)no1)C(=O)[C@H]1C[C@H](NC#N)C1 [Compound 1-45, (1r,3r)-N-[3-(3-chlorophenyl)-1,2-oxazol-5-yl]-3-(cyanoamino)-N-methylcyclobutane-1-carboxamide] | 100 to 1000 nM
8 | CCC1(C(=O)Nc2cnc(C3CCCCC3)s2)CC(NC#N)C1 (centres unmarked) [Compound 1-46, (1r,3s)-3-(cyanoamino)-N-(2-cyclohexyl-1,3-thiazol-5-yl)-1-ethylcyclobutane-1-carboxamide] | 100 to 1000 nM
9 | N#CN[C@H]1C[C@](F)(C(=O)Nc2nc(Cl)c(C3CCCCC3)s2)C1 [Compound 1-47, (1s,3s)-N-(4-chloro-5-cyclohexyl-1,3-thiazol-2-yl)-3-(cyanoamino)-1-fluorocyclobutane-1-carboxamide] | 100 to 1000 nM
10 | N#CN[C@H]1C[C@@](F)(C(=O)Nc2nc(Cl)c(C3CCCCC3)s2)C1 [Compound 1-48, (1r,3r)-N-(4-chloro-5-cyclohexyl-1,3-thiazol-2-yl)-3-(cyanoamino)-1-fluorocyclobutane-1-carboxamide] | < 100 nM
11 | CN(c1nc(Cl)c(C2CCCCC2)s1)C(=O)[C@H]1C[C@H](NC#N)C1 [Compound 1-49, (1r,3r)-N-(4-chloro-5-cyclohexyl-1,3-thiazol-2-yl)-3-(cyanoamino)-N-methylclycobutane-1-carboxamide] | < 100 nM
12 | CN(c1nc(Cl)c(C(C)(C)C)s1)C(=O)[C@H]1C[C@H](NC#N)C1 [Compound 1-50, (1r,3r)-N-(5-tert-butyl-4-chloro-1,3-thiazol-2-yl)-3-(cyanoamino)-N-methylcyclobutane-1-carboxamide] | < 100 nM
13 | N#CN[C@H]1C[C@H](C(=O)Nc2cc(-c3cccc(C#N)c3)no2)C1 [Compound 1-51, (1r,3r)-3-(cyanoamino)-N-[3-(3-cyanophenyl)-1,2-oxazol-5-yl]cyclobutane-1-carboxamide] | 100 to 1000 nM
14 | CN(c1cc(-c2cccc(Cl)c2)on1)C(=O)[C@H]1C[C@H](NC#N)C1 [Compound 1-52, (1r,3r)-N-[5-(3-chlorophenyl)-1,2-oxazol-3-yl]-3-(cyanoamino)-N-methylcyclobutane-1-carboxamide] | 100 to 1000 nM
15 | N#CN[C@H]1C[C@H](C(=O)Nc2ncc(C3CCCCC3)o2)C1 [Compound 1-53, (1r,3r)-3-(cyanoamino)-N-(5-cyclohexyl-1,3-oxazol-2-yl)cyclobutane-1-carboxamide] | 100 to 1000 nM
16 | CN(c1nc(Cl)c(C(C)(C)C)s1)C(=O)[C@]1(F)C[C@H](NC#N)C1 [Compound 1-54, (1r,3r)-N-(5-tert-butyl-4-chloro-1,3-thiazol-2-yl)-3-(cyanoamino)-1-fluoro-N-methylcyclobutane-1-carboxamide] | < 100 nM
17 | CN(c1nc(Cl)c(C2CCCCC2)s1)C(=O)[C@]1(F)C[C@H](NC#N)C1 [Compound 1-55, (1r,3r)-N-(4-chloro-5-cyclohexyl-1,3-thiazol-2-yl)-3-(cyanoamino)-1-fluoro-N-methylcyclobutane-1-carboxamide] | < 100 nM
18 | N#CN[C@H]1C[C@](F)(C(=O)Nc2cc(-c3ccc(C(F)(F)F)cc3)n[nH]2)C1 [Compound 1-56, (1s,3s)-3-(cyanoamino)-1-fluoro-N-{3-[4-(trifluoro-methyl)phenyl]-1H-pyrazol-5-yl}cyclobutane-1-carboxamide] | 100 to 1000 nM
19 | N#CN[C@H]1C[C@@](F)(C(=O)Nc2cc(-c3ccc(C(F)(F)F)cc3)n[nH]2)C1 [Compound 1-57, (1r,3r)-3-(cyanoamino)-1-fluoro-N-{3-[4-(trifluoro-methyl)phenyl]-1H-pyrazol-5-yl}cyclobutane-1-carboxamide] | 100 to 1000 nM
20 | CN(c1nc(Cl)c(C2CCCCC2)s1)C(=O)[C@]1(F)C[C@@H](NC#N)C1 [Compound 1-58, (1s,3s)-N-(4-chloro-5-cyclohexyl-1,3-thiazol-2-yl)-3-(cyanoamino)-1-fluoro-N-methylcyclobutane-1-carboxamide] | 100 to 1000 nM
21 | CC(C)(C)c1sc(NC(=O)[C@]2(F)C[C@@H](NC#N)C2)nc1Cl [Compound 1-59, (1s,3s)-N-(5-tert-butyl-4-chloro-1,3-thiazol-2-yl)-3-(cyanoamino)-1-fluorocyclobutane-1-carboxamide] | 100 to 1000 nM
22 | CC(C)(C)c1sc(NC(=O)[C@]2(F)C[C@H](NC#N)C2)nc1Cl [Compound 1-60, (1r,3r)-N-(5-tert-butyl-4-chloro-1,3-thiazol-2-yl)-3-(cyanoamino)-1-fluorocyclobutane-1-carboxamide] | < 100 nM
23 | Cc1cc(NC(=O)[C@H]2C[C@H](NC#N)C2)cc(-c2ccccc2F)c1 [Compound 1-61, (1r,3r)-3-(cyanoamino)-N-[3-(2-fluorophenyl)-5-methylphenyl]cyclo-butane-1-carboxamide] | 100 to 1000 nM
24 | N#CN[C@H]1C[C@H](C(=O)Nc2cc(Cl)cc(C3CCCCC3)c2)C1 [Compound 1-62, (1r,3r)-N-(3-chloro-5-cyclohexylphenyl)-3-(cyanoamino)cyclo-butane-1-carboxamide] | < 100 nM
25 | N#CN[C@H]1C[C@H](C(=O)Nc2ccc(F)c(N3CCCCC3)c2)C1 [Compound 1-63, (1r,3r)-3-(cyanoamino)-N-[4-fluoro-3-(piperidin-1-yl)phenyl]cyclobutane-1-carboxamide] | 100 to 1000 nM
26 | N#CN[C@H]1C[C@H](C(=O)Nc2nc3cccc(OC4CCC4)c3s2)C1 [Compound 1-64, (1r,3r)-3-(cyanoamino)-N-(7-cyclobutoxy-1,3-benzothiazol-2-yl)cyclobutane-1-carboxamide] | 100 to 1000 nM
27 | N#CN[C@H]1C[C@@](F)(C(=O)Nc2nc3cccc(OC4CCC4)c3s2)C1 [Compound 1-65, (1r,3r)-3-(cyanoamino)-N-(7-cyclobutoxy-1,3-benzothiazol-2-yl)-1-fluorocyclobutane-1-carboxamide] | < 100 nM
28 | N#CN[C@H]1C[C@](F)(C(=O)Nc2nc3cccc(OC4CCC4)c3s2)C1 [Compound 1-66, (1s,3s)-3-(cyanoamino)-N-(7-cyclobutoxy-1,3-benzothiazol-2-yl)-1-fluorocyclobutane-1-carboxamide] | 100 to 1000 nM
29 | CC1(C)[C@@H]2CC[C@@H](CNC(=O)[C@H]3C[C@H](NC#N)C3)[C@H]1C2 [Compound 1-67, (1r,3r)-3-(cyanoamino)-N-{[(1R,2R,5R)-6,6-dimethylbicyclo[3.1.1]heptan-2-yl]methyl}cyclo-butane-1-carboxamide] | 100 to 1000 nM

Source: patent publication US11247987B2, “Inhibiting ubiquitin specific peptidase 30” (FORMA Therapeutics, Inc., priority 2017, dated 2022)
